According to PMC11338861, “Assessment of the potential risk of oteseconazole and two other tetrazole antifungals to inhibit adrenal steroidogenesis and peripheral metabolism of corticosteroids” (Frontiers in Pharmacology, 2024):

Tests used:
CYP11A1 = molecular target: T1, CYP11A1 (Homo sapiens, UniProt P05108); assay: mitochondrial fraction of transfected V79-4 cells, pregnenolone ELISA; assay type: cell-based
T1 sequence (P05108 40-521): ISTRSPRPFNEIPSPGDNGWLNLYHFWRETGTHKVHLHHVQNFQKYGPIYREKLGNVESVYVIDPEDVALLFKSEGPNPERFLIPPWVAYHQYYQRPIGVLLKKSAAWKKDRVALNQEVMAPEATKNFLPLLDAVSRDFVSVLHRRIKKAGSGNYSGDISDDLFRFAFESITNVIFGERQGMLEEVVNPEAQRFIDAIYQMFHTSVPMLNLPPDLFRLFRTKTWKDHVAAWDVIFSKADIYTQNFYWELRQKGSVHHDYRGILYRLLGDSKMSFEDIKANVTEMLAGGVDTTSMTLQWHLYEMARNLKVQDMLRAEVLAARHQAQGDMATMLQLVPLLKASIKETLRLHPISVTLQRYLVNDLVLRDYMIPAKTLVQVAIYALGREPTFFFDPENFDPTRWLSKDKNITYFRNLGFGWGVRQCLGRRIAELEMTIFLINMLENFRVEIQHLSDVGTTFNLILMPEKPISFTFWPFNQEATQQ
T1 sequence (P10109 61-184 partner): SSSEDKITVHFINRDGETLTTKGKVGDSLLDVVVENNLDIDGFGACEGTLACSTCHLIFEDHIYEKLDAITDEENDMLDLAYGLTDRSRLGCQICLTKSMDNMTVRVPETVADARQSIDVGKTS

CYP11B1 = molecular target: T2, CYP11B1 (Homo sapiens, UniProt P15538); assay: mitochondrial fraction of V79-CYP11B1 cells, 11-DOC to corticosterone, UHPLC-MS/MS; assay type: cell-based
T2 sequence (P15538 25-503): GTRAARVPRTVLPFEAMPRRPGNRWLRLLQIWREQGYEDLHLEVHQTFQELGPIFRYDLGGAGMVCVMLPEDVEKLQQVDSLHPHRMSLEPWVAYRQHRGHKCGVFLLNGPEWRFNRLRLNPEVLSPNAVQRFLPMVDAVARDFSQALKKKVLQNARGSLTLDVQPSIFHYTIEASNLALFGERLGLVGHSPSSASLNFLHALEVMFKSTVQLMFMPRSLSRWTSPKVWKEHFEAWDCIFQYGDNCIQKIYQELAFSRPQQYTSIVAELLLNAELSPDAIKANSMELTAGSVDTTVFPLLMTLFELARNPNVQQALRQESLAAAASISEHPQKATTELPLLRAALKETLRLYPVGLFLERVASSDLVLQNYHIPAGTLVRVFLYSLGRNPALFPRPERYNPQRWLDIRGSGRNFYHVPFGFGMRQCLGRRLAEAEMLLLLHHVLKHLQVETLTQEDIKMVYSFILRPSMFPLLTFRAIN

CYP17A1 = molecular target: T3, CYP17A1 (Homo sapiens, UniProt P05093); assay: […]α-hydroxylase activity, microsomes of transfected COS-1 cells, radiolabeled progesterone, TLC ([…],20-lyase IC50 […]); assay type: biochemical
T3 sequence (P05093 1-508): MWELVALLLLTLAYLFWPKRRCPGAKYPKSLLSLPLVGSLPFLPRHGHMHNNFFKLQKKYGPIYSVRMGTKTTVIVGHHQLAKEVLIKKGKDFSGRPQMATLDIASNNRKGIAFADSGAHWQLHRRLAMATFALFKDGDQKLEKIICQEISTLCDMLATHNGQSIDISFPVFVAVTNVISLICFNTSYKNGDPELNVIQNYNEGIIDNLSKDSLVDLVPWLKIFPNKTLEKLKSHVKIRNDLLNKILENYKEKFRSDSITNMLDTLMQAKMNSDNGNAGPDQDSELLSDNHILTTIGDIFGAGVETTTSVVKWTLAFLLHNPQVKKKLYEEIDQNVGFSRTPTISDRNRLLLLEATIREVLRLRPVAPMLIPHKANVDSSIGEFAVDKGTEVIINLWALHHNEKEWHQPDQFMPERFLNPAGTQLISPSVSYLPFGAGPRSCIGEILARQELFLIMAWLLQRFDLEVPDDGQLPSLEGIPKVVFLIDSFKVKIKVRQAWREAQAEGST
T3 sequence (P16435 2-677 partner): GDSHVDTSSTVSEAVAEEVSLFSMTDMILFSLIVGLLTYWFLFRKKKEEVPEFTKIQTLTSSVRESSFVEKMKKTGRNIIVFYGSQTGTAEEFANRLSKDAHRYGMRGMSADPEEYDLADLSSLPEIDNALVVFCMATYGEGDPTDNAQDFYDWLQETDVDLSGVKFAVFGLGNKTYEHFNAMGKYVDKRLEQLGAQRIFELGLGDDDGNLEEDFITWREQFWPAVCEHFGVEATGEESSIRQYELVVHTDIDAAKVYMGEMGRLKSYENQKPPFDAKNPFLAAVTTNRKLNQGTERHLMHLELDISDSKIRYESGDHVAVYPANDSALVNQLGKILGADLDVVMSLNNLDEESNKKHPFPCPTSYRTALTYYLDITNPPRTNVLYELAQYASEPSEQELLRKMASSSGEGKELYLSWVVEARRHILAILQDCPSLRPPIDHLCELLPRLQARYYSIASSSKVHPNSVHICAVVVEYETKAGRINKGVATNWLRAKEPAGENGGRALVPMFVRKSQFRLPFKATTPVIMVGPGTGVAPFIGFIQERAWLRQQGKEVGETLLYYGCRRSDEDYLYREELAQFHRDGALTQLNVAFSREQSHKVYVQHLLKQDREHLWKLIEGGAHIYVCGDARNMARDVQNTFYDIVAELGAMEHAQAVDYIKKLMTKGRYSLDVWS

CYP21A2 = molecular target: T4, CYP21A2 (Homo sapiens, UniProt P08686); assay: cell-free activity assay, microsomes of transfected COS-1 cells, progesterone to 11-DOC; assay type: biochemical
T4 sequence (P08686 1-495): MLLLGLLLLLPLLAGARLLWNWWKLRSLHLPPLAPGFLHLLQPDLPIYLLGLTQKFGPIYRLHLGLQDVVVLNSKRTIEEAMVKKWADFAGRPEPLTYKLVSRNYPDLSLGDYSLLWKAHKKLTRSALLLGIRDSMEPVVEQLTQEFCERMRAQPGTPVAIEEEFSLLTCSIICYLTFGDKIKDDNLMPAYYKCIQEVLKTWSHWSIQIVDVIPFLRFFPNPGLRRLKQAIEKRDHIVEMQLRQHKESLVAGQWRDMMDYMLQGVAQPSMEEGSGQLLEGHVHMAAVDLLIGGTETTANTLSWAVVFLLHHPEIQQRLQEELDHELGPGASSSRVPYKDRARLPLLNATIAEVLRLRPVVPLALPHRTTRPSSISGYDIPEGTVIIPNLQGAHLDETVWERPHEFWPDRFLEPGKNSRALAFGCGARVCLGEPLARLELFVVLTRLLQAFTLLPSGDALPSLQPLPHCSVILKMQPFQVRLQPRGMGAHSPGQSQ
T4 sequence (P16435 2-677 partner): T3 sequence (P16435 2-677 partner)

Row | inhibition at 10 µM (CYP11A1) | IC50 (CYP17A1) | IC50 (CYP21A2) | SMILES | mitochondrial fraction of V79-CYP11B1 cells, 11-DOC to corticosterone, UHPLC-MS/ (CYP11B1)
1 | ~45% |  |  | O[C@@](Cn1cnnn1)(c1ccc(F)cc1F)C(F)(F)c1ccc(-c2ccc(OC(F)(F)F)cc2)cn1 [quilseconazole] | 
2 | ~35% | 13.2 ± 3.9 µM | 13.8 ± 1.9 µM | O[C@@](Cn1cnnn1)(c1ccc(F)cc1F)C(F)(F)c1ccc(-c2ccc(OCC(F)(F)F)cc2)cn1 [oteseconazole] | 

Row | SMILES | inhibition at 10 µM (CYP11A1) | IC50 (CYP17A1) | IC50 (CYP21A2) | mitochondrial fraction of V79-CYP11B1 cells, 11-DOC to corticosterone, UHPLC-MS/ (CYP11B1)
3 | CC(=O)N1CCN(c2ccc(OC[C@H]3CO[C@](Cn4ccnc4)(c4ccc(Cl)cc4Cl)O3)cc2)CC1 (racemic) [ketoconazole, reference compound] | ~55% |  |  | measuring the conversion of 11-DOC to corticosterone, with ketoconazole serving as positive control
